The text below walks through data of ChEMBL document CHEMBL1201862, “PubChem BioAssay data set” (2004).

Some test systems named below: RXF 393; Malme-3M; DU-145; SW-620; SF-295; SF-268; RPMI-8226; KM12; NCI-H23; MDA-MB-435; Hs-578T; SNB-19; 786-0; IGROV-1; SN12C; SF-539; TK-10; OVCAR-8; MDA-MB-231; SNB-75.
Holding throughout (test): NCI tumour cell line growth inhibition, 48 h

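Dose response: 5 concentrations. Exposure: 48 h. Format: 96-well plates. Endpoint: linear interpolation; highest concentration if not reached. GI50: concentration for 50% inhibition of growth.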 The source made the active and inactive calls. Cut-off read from the data, not from the text of the source: active = GI50 up to about 1.1 µM and inactive = higher.

Regarding `O=c1c(Nc2ccccc2)cn(CCOc2ccccc2)c(=O)n1CCOc1ccccc1`, the GI50 in the assay on RXF 393 is 48.4 µM (inactive); with Malme-3M, 79.6 µM (inactive); in the assay with DU-145, 53 µM (inactive); with SW-620 it was > 100 µM (inactive); in the assay on SF-295 it was 52.5 µM (inactive); in the assay with SF-268 it was 16.5 µM (inactive). For the same compound, the GI50 with RPMI-8226 was > 100 µM (inactive); in the assay on KM12, > 100 µM (inactive); in the assay with NCI-H23, 33.4 µM (inactive); in the assay with MDA-MB-435, > 100 µM (inactive); with Hs-578T, 17.6 µM (inactive); in the assay on SNB-19 it was 31.5 µM (inactive). In addition, the GI50 in the assay with 786-0 was 28.2 µM (inactive); with IGROV-1, 36.3 µM (inactive); in the assay on SN12C, > 100 µM (inactive).

Regarding `O=[N+]([O-])c1cccc([N+](=O)[O-])c1S(=O)(=O)c1ccccc1`, the GI50 with SF-539 was 15.8 µM (inactive); in the assay on TK-10, 16 µM (inactive); with Malme-3M, 2.28 µM (inactive); in the assay on OVCAR-8, 2.48 µM (inactive); with DU-145, 6.05 µM (inactive); in the assay with SW-620, 2.55 µM (inactive). Moreover, the GI50 in the assay with SF-295 was 16.4 µM (inactive); in the assay on SF-268, 12.2 µM (inactive); with RPMI-8226, 1.46 µM (inactive); in the assay on KM12, 16.1 µM (inactive); in the assay with NCI-H23, 21.3 µM (inactive); in the assay with MDA-MB-435, 3.61 µM (inactive). Further, the GI50 in the assay with MDA-MB-231 was 18.2 µM (inactive); in the assay on Hs-578T, 20.8 µM (inactive); with SNB-19, 18.3 µM (inactive); in the assay on 786-0 it was 2.09 µM (inactive); in the assay with IGROV-1 it was 1.89 µM (inactive); in the assay on SN12C, 3.83 µM (inactive).

For the compound `COC1/C=C/C(C)C(C(C)C(OC)C(C)CCC(=O)C(C)C(CC(=O)O)OC)OC(=O)/C=C/C=C(\C)CC(OC)C(OC)C2=CC(=O)O[C@@H](C(C)C(OC)CC(OC)/C=C/C(C)C(O)C1)[C@H]2O` (stereo partly drawn), the GI50 is 0.0703 µM (active) in the assay with TK-10; 0.0337 µM (active) in the assay with OVCAR-8; 0.053 µM (active) with DU-145; 0.0311 µM (active) in the assay on SNB-75; 0.0242 µM (active) in the assay on SW-620; 0.0968 µM (active) with SF-295. The GI50 is 0.046 µM (active) with SF-268; 0.0959 µM (active) with RPMI-8226; 0.0512 µM (active) with KM12; 0.164 µM (active) in the assay on NCI-H23; 0.0681 µM (active) in the assay with MDA-MB-435; 0.083 µM (active) in the assay with MDA-MB-231. The GI50 with SNB-19 was 0.217 µM (active); in the assay on 786-0 it was 0.0223 µM (active); in the assay with IGROV-1, 0.0129 µM (active); in the assay on SN12C it was 0.406 µM (active).

With `O=c1c2cc(S(=O)(=O)Nc3ccccc3Cl)ccc2ncn1NS(=O)(=O)c1ccc(Br)cc1`, the GI50 with SF-539, with TK-10, in the assay on Malme-3M, in the assay with OVCAR-8, in the assay with DU-145 and with SNB-75 was > 37.5 µM (inactive) in each case. For the same compound, the GI50 in the assay on SW-620, in the assay on SF-295, in the assay with SF-268, in the assay on RPMI-8226, in the assay with KM12 and with NCI-H23 was > 37.5 µM (inactive) throughout. In addition, the GI50 in the assay on MDA-MB-435, with MDA-MB-231, in the assay with Hs-578T, with SNB-19, in the assay on 786-0 and in the assay on IGROV-1 was > 37.5 µM (inactive) in each case. The GI50 in the assay with SN12C was > 37.5 µM (inactive).

On to `O=S(=O)(O)c1ccc(/N=N/c2ccc(/N=N/c3c(O)ccc4cc(S(=O)(=O)O)ccc34)cc2)cc1`, for which the GI50 in the assay with SF-539, with RXF 393, in the assay on TK-10, in the assay on Malme-3M, in the assay on OVCAR-8 and with SNB-75 was > 100 µM (inactive) throughout. The GI50 in the assay with SW-620, with SF-295, with SF-268, in the assay with RPMI-8226, with KM12 and in the assay with NCI-H23 was > 100 µM (inactive) throughout. Further, the GI50 in the assay with MDA-MB-435, in the assay on MDA-MB-231, in the assay with Hs-578T, in the assay on SNB-19, with 786-0 and with IGROV-1 was > 100 µM (inactive) throughout.

`O=C(O)c1ccc(C(O)(c2ccccc2)c2ccccc2)cc1`: the GI50 in the assay on TK-10, with Malme-3M, in the assay with OVCAR-8, in the assay on DU-145, in the assay on SF-295 and in the assay with SF-268 was > 100 µM (inactive) in each case. In addition, the GI50 in the assay on RPMI-8226, with KM12, in the assay with NCI-H23, in the assay on MDA-MB-435, with MDA-MB-231 and in the assay on Hs-578T was > 100 µM (inactive) throughout. In addition, the GI50 in the assay on SNB-19, in the assay with 786-0, in the assay with IGROV-1 and in the assay on SN12C was > 100 µM (inactive) throughout.

Regarding `C=CCSC1=N/C(=C\c2ccc(C)cc2)C(=O)N1CC=C`, the GI50 in the assay with SF-539 was 25.8 µM (inactive); in the assay on RXF 393, 15.3 µM (inactive); with TK-10, 44.3 µM (inactive); in the assay with OVCAR-8 it was 24.8 µM (inactive); in the assay with DU-145, 20.7 µM (inactive); in the assay on SW-620, 32.4 µM (inactive). Moreover, the GI50 with SF-295 is 43.5 µM (inactive); in the assay on SF-268, 36.6 µM (inactive); in the assay on RPMI-8226, 13.9 µM (inactive); with KM12, 23.7 µM (inactive); in the assay on NCI-H23, 32.7 µM (inactive); in the assay on MDA-MB-435 it was 25.9 µM (inactive). The GI50 in the assay with MDA-MB-231 is 90.4 µM (inactive); with Hs-578T, 54.8 µM (inactive); in the assay on SNB-19 it was 32.4 µM (inactive); with 786-0 it was 18.3 µM (inactive); in the assay with IGROV-1, 44.2 µM (inactive); in the assay on SN12C it was 12.7 µM (inactive).

As for `CSC1=C(C#N)C(=O)N(c2ccc(C)cc2)C(=O)C1C#N` (stereo not drawn), the GI50 in the assay on SF-539, in the assay with RXF 393, in the assay on TK-10, in the assay on Malme-3M, in the assay on DU-145 and in the assay on SW-620 was > 100 µM (inactive) in each case. For the same compound, the GI50 with SF-295, in the assay with SF-268, in the assay with RPMI-8226, in the assay with KM12, with NCI-H23 and in the assay on MDA-MB-435 was > 100 µM (inactive) in each case. In addition, the GI50 in the assay on MDA-MB-231 is > 100 µM (inactive); in the assay on Hs-578T, 28.6 µM (inactive); in the assay on SNB-19, > 100 µM (inactive); with 786-0, > 100 µM (inactive); in the assay with IGROV-1, > 100 µM (inactive); in the assay on SN12C, > 100 µM (inactive).

In the case of `Cc1c2c(n(CC(c3ccccc3)c3ccccc3)c1C)NN=C(C#N)S2(=O)=O`, the GI50 in the assay on SF-539 is > 100 µM (inactive); in the assay on TK-10, > 100 µM (inactive); in the assay with OVCAR-8, > 100 µM (inactive); with DU-145, > 100 µM (inactive); in the assay on SNB-75, 98.4 µM (inactive); in the assay on SW-620, > 100 µM (inactive). The GI50 in the assay on SF-295 was > 100 µM (inactive); in the assay with SF-268 it was 64.1 µM (inactive); in the assay with RPMI-8226 it was > 100 µM (inactive); in the assay with KM12, 66.2 µM (inactive); in the assay on NCI-H23 it was > 100 µM (inactive); with MDA-MB-435 it was > 100 µM (inactive). The GI50 was 33.9 µM (inactive) in the assay on MDA-MB-231; 43.1 µM (inactive) with Hs-578T; > 100 µM (inactive) in the assay with SNB-19; > 100 µM (inactive) with 786-0; > 100 µM (inactive) in the assay with IGROV-1; > 100 µM (inactive) in the assay on SN12C.

Turning to `C/C(=N/OCCC(=O)O)C1CC1`, the GI50 in the assay on SF-539, with RXF 393, with TK-10, in the assay on Malme-3M, in the assay on OVCAR-8 and in the assay with SNB-75 was > 100 µM (inactive) in each case. In addition, the GI50 in the assay on SW-620, in the assay with SF-295, in the assay with SF-268, with RPMI-8226, in the assay with KM12 and in the assay with NCI-H23 was > 100 µM (inactive) each time. Besides, the GI50 in the assay with SNB-19, in the assay on 786-0, in the assay on IGROV-1 and in the assay with SN12C was > 100 µM (inactive) throughout.

Turning to `CCOc1ccccc1/N=N/c1c(-c2ccccc2)nn(C(=O)CC(=O)Nc2cccc(C)c2)c1-c1ccccc1`, the GI50 in the assay with SF-539 was > 100 µM (inactive); in the assay on RXF 393 it was > 100 µM (inactive); with TK-10 it was > 100 µM (inactive); with Malme-3M, > 100 µM (inactive); in the assay on OVCAR-8 it was > 100 µM (inactive); with SNB-75, 27.4 µM (inactive). Further, the GI50 was > 100 µM (inactive) in the assay on SW-620; > 100 µM (inactive) in the assay on SF-295; 74.8 µM (inactive) in the assay on SF-268; > 100 µM (inactive) with RPMI-8226; 94 µM (inactive) in the assay with KM12; > 100 µM (inactive) in the assay with NCI-H23. The GI50 in the assay with SNB-19, in the assay on 786-0, in the assay with IGROV-1 and in the assay on SN12C was > 100 µM (inactive) each time.
